Literature values in patent publication US11452734B2, “Method of treating and preventing secondary hyperparathyroidism” (OPKO IRELAND GLOBAL HOLDINGS, LTD., priority 2006, dated 2022).

Molecular target: T1, Vitamin D receptors (VDR) (Homo sapiens, UniProt P11473)
T1 sequence (P11473 1-427): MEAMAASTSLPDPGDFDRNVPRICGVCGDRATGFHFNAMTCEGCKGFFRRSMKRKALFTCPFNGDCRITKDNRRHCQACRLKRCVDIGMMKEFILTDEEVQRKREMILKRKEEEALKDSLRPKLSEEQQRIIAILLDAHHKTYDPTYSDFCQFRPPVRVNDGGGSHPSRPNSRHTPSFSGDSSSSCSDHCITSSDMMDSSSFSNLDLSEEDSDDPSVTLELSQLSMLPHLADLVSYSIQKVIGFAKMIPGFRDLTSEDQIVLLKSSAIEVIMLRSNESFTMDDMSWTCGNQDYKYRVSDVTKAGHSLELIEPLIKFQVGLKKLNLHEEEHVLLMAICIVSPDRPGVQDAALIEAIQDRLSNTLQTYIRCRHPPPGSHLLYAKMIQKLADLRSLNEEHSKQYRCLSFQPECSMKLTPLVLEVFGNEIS

Row | SMILES | affinities for the VDR, compared among the three Vitamin D hormones
1 | C=C1/C(=C\C=C2/CCC[C@]3(C)[C@@H]([C@H](C)/C=C/[C@H](C)C(C)(C)O)CC[C@@H]23)C[C@@H](O)C[C@@H]1O [1α,25-dihydroxyvitamin D2] | nearly identical
2 | C=C1/C(=C\C=C2/CCC[C@]3(C)[C@@H]([C@H](C)/C=C/[C@@](C)(O)C(C)C)CC[C@@H]23)C[C@@H](O)C[C@@H]1O [1α,24(S)-dihydroxyvitamin D2] | nearly identical
